The source of these data is patent publication US10207988B2, “Methods and compositions for treatment of cancer and autoimmune disease” (THE JACKSON LABORATORY, priority 2011, dated 2019).

The subject of data set [1] is cells isolated from the spleens of wild type or AID knockout (−/−) mice. Briefly: splenocyte viability, Guava EasyCyte Flow Cytometer Assay. The data set is classed as cell-based, mouse. To be noted: 150 μM DIDS, stimulated with anti-CD40 antibodies and IL-4. On the procedure:
Cells isolated from the spleens of wild-type (WT) or AICDA knock-out (−/−) mice were stimulated with anti-CD40 antibodies and IL-4 on day 0 and day 2. DIDS was added on day 0 and day 2 at concentrations of 0 or 150 μM. WT cells stimulated with anti-CD40 antibodies plus IL-4 and treated with DIDS are shown as filled boxes, AICDA−/− cells stimulated with anti-CD40 antibodies plus IL-4 and treated with DIDS as circle; WT cells stimulated with anti-CD40 antibodies plus IL-4 are shown as open diamonds; and AICDA−/− cells stimulated with anti-CD40 plus IL-4 antibodies as open triangles. The total number of viable cells was determined every other day. Days are shown on the x-axis and the fraction of viable cells is shown on the y-axis.
Cells were isolated from the spleens of wild type or AID knockout (−/−) mice, cultured and stimulated with anti-CD40 antibodies and IL-4 on day 0 and day 2. DIDS was added on day 0 and day 2 at concentrations of 0 or 150 μM. The total number of viable cells was determined every other day using Guava EasyCyte Flow Cytometer Assay.

For data set [2], the system named is mouse B-lymphoid leukemia cell line CH12-F3. Briefly: total cell counts of CH12-F3 cells cultured with DIDS. The data set is classed as cell-based. As for the experimental part: The mouse B-lymphoid leukemia cell line CH12-F3 was cultured in RPMI-1640 medium supplemented with 2-10 mM L-glutamine (Gibco), 10% (vol/vol) heat-inactivated fetal bovine serum (Omega Scientific) and 5% (vol/vol) NCTC 109 media (Gibco) (complete RPMI; non-activated) or complete RPMI-1640 medium containing 1 μg/ml anti-CD40 antibody, 25 ng/ml IL-4 and 1 ng/ml transforming growth factor beta 1 (TGF-beta1) (activated). Cultures were supplemented with 0, 50, 100, or 150 micromolar DIDS, and total cell counts were determined by manual cytometry after 0, 1, 2, 3, 4, or 6 days in culture.

Data set [3] has as its system AID+/+ (C57BL/6) or AID−/− mice. Kind of data set: systemic DIDS treatment of DNP-KLH immunized mice. It counts as in vivo. On the procedure: To test the in vivo effectiveness of DIDS, either AID+/+ (C57BL/6) or AID−/− mice (Muramatsu et al. et al., 2000 supra) were administered DIDS (10 mg/kg or 50 mg/kg) at weekly intervals, immunized at weeks 1 with dinitrophenol conjugated Keyhole limpet hemocyanin (DNP-KLH) in complete Freund's adjuvant (CFA) to stimulate lymphocyte activation, and boosted after 4 weeks with DNP-KLH (in incomplete Freund's adjuvant, IFA). After a total of 7 weeks (FIG. 25A) mice were euthanized. The group size was n=5. […] For this the mice were weighed weekly and the data represent the average fractional change in body mass for five animals, and error bars denote S.E.M.
After the 7-week trial window, tissues from treated and control animals were fixed, sectioned, and analyzed after hematoxylin and eosin (H&E) staining. […] To determine whether DIDS induced a B-cell specific phenotype related to AID, bone marrow, spleen, and peripheral blood, from DIDS-treated AID+/+ versus AID−/− mice, were analyzed for the presence of B220+CD19+ B-cells, by flow cytometry (FIG. 26). […] In FIG. 26 the endpoint flow cytometry dot plot analysis of bone marrow, spleen, and peripheral blood from AID−/− and AID+/+ mice immunized with DNP-KLH and treated with 0, 10, or 50 mg/kg DIDS is shown. Plots represent the population of cells in the lymphocyte gate stained for expression of B220 (y-axis) and CD19 (x-axis). The numbers in the upper right corner of each plot provide the percentage of B220+/CD19+ cells for each analysis. The progression of B-cell maturation from early/pre-GC to post-GC is indicated below.

A further data set deals with T1, Rad51 (Homo sapiens, UniProt Q06609).
T1 sequence (Q06609 1-339): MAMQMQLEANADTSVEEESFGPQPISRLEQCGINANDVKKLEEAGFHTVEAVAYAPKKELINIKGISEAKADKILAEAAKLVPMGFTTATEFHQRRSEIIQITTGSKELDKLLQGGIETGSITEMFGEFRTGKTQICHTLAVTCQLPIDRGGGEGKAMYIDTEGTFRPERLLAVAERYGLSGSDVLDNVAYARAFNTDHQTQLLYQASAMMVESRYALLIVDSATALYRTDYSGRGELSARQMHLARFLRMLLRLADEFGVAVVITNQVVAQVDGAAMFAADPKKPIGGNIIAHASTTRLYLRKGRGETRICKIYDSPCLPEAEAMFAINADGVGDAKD
To be noted: cited from earlier work.

In data set [4] the test system is phosphor-H2AX foci in AID+ and AID− primary human CLL cells. Kind of data set: phospho-H2AX foci in primary human CLL cells treated with DIDS. It counts as cell-based. To be noted: 30 μM DIDS, 2 days in culture, AID+ versus AID− samples. The text has this: Primary human CLL patient derived cells were obtained from peripheral bleeds collected at the time of routine clinical monitoring. Primary peripheral blood samples were collected via routine venipuncture into BD Vacutainer CPT Cell Separation Tubes (Becton Dickinson). Samples were centrifuged to separate red blood cells (RBC) and then inverted to resuspend the monocuclear cells in their own plasma. Samples were stored overnight at the site of collection at room temperature then shipped via courier to the site of analysis. Each sample was tested for AID expression status by reverse transcription PCR (RT-PCR) to detect presence of the human AID mRNA (see Example 11). Samples were then divided into AID+ (those showing detectable levels of AID mRNA) and AID− (those showing no detectable AID mRNA above background) groups. Multiple independent cultures from different AID+ and AID− samples were initiated in standard RPMI-1640 medium containing 10% FBS plus either 0 or 30 μM DIDS. After 2 days in culture, cells from each culture/condition were fixed using paraformaldehyde, mounted on microscope coverslips, permeabilized by washing with weak detergent, and were processed for immunofluorescent detection of the DNA double strand break marker phosphor-H2AX (primary antibody: cat. No. A300-081A, Bethyl Laboratories; 1:400 dilution). […]

The structures appear in SMILES notation.

Take `O=S(=O)([O-])c1cc(N=C=S)ccc1/C=C/c1ccc(N=C=S)cc1S(=O)(=O)[O-].[Na+].[Na+]` [DIDS, 4,4′diisothiocyanostilbene-2,2′-disulfonic acid]: in data set [1], the “total number of viable cells” value was “lower viability”. The total cell number entry was “strong decrease of total cell number” in data set [2] (activated cells (anti-CD40, IL-4, TGF-beta1), 150 micromolar DIDS) and “no difference in cell viability or cell proliferation” in data set [2] (non-activated cells, 0-150 micromolar DIDS). Moreover, the “weight gain (fractional change in body mass)” value in data set [3] (0 mg/kg control and 50 mg/kg cohorts, after 5 weeks) is on record as “independent of DIDS exposure”. Also, the “overt signs of toxicity” value in data set [3] (10 mg/kg or 50 mg/kg DIDS at weekly intervals, 7 weeks) is “No animals in either the control or DIDS-treated groups showed overt signs of toxicity”. Also, the “overt non-B-cell toxicity” value in data set [3] (AID+/+ or AID−/− cohort) was “none of the DIDS treated animals”. Besides, the “percentages of splenic B-cells (flow cytometry)” value in data set [3] (AID+/+ or AID−/− mice) was “no consistent differences”. In data set [3] (at least up to 50 mg/kg, AID+/+ or AID−/− mice), the “toxicity / splenic physiology” value was “does not induce significant toxicity or general defects in splenic physiology”. Besides, the “reduction in circulating B-lymphoid cells (flow cytometry)” value in data set [3] (both 10 mg/kg and 50 mg/kg DIDS, AID+/+ mice) is listed as 9-11 fold. The “reduction in B220+CD19+ B-cells in the bone marrow (flow cytometry)” value in data set [3] (both 10 mg/kg and 50 mg/kg treated AID+/+ mice) is listed as 25%. Besides, in data set [3] (untreated versus DIDS-treated animals, after 7 weeks), the “spleen sections, H&E staining” value is “no gross anatomical defects or differences in germinal center (GC) architecture”. Further, at Rad51, the “effect on Rad51 complexes and heteroduplex formation” value was “disrupts Rad51 complexes and inhibits heteroduplex formation”. Besides, the “phosphor-H2AX foci per cell (DNA double strand break marker)” value in data set [4] is on record as “inhibits repair of AID-mediated genomic DNA double strand breaks (DSBs)”.
